Laboratory results taken from US10273227B2, “C5-anilinoquinazoline compounds and their use in treating cancer” (AstraZeneca AB, priority 2017, dated 2019).

Assays:
Format in all cases: cell-based
Ba/F3-Parental = test: MTS viability assay, Ba/F3 parental cells; settings: Mus musculus, BaF3, 72 h incubation, top concentration 10 uM
Experimental: (§1) Exponentially grown Ba/F3 cells (1.5×10^6 cells in 2 ml medium) were infected with 2 ml of viral suspension in a 6-well plate in the presence of mIL-3 (10 ng/ml) and polybrene (4 μg/ml) (Sigma Aldrich, St. Louis, Mo.) and incubated for 24 h. After 24 h, the cells were centrifuged and the viral supernatant was discarded. The cells were then re-suspended in fresh medium and allowed to recover for another day. The following day, the cells were seeded in complete medium without murine IL-3. After a week or two, when cells started proliferating, a selection was carried out by gradually increasing the puromycin concentration to 0.5 ug/ml. Once the cells were growing exponentially in puromycin, batches of cells were frozen down for banking.
(§2) The impact of KIT inhibitors on the viability of Ba/F3 expressing KIT mutations was determined using an MTS assay, which is a colorimetric sensitive quantification of viable cells in proliferation and cytotoxicity assay. In the MTS assay […] in the presence of phenazine methosulfate (PMS) was used. The mitochondrial reductase forms a formazan which absorbs at 490 nm. Cells in exponential growth phase were added to 384-well plates containing pre-dispensed compounds (top concentration 10 uM, 10-point curve). The cells were incubated for 72 h at 37° C. and 5% CO2. After 72 h, MTS reagent was added to the plates and incubated an additional 2 h at 37° C. before measuring the absorbance at 490 nm on a Tecan microplate reader using Magellan Software (Tecan Trading AG, Switzerland).
(§3) The absorbances were normalized as follows: (Read-Day0 control)/(Day3 control−Day0 control)*100. The GI50 values were generated using Genedata Screener software (Genedata Lexington, Mass.). A non-linear regression with constraints for top and bottom between 100 and −100 and no constraint on the Hill coefficient was used to generate GI50 values. The GI50 values reported below are the calculated mean result of at least 3 biological replicates across all the cell lines tested.

[1] = biological target: T1, Ba/F3-T670I (KIT exon11 deletion (557-558) and secondary mutation T670I) (Homo sapiens, UniProt P10721, DEL557-558/T670I); test: MTS viability assay, Ba/F3 expressing KIT exon11 deletion (557-558) and T670I; settings: 72 h incubation, top concentration 10 uM
T1 construct: expressed in transfected cells; host or cells: Ba/F3 cells, lentiviral transduction (pLVX-IRES Puro)
T1 sequence (P10721 with tags, fused parts or gaps DEL557-558/T670I): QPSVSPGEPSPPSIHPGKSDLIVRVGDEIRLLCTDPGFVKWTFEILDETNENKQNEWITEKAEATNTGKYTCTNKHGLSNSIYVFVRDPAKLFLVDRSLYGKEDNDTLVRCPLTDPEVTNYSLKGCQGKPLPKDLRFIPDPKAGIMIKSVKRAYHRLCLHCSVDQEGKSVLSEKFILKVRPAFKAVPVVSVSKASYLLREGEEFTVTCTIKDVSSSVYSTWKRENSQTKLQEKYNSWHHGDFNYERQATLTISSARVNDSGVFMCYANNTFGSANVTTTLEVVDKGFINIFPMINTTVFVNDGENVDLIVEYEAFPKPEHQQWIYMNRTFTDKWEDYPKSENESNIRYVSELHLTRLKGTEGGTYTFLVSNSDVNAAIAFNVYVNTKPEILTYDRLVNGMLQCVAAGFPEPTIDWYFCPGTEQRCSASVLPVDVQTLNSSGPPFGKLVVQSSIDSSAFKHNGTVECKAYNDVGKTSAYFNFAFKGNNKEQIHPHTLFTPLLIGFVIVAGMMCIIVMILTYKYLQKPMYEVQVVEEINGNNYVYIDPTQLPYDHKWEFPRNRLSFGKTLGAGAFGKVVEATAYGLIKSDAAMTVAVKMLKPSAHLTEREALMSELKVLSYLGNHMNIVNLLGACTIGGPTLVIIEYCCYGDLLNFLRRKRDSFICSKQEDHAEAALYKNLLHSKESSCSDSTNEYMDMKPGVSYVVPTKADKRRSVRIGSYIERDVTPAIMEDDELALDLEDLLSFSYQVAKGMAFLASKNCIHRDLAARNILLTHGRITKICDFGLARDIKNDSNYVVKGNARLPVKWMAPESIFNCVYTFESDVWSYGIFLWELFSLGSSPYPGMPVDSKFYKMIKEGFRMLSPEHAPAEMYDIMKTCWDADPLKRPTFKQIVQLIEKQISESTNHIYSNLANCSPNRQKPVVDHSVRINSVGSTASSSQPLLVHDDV
Experimental: as §1, §2, §3

[2] = biological target: T2, Ba/F3-V654A (KIT exon11 deletion (557-558) and secondary mutation V654A) (Homo sapiens, UniProt P10721, DEL557-558/V654A); test: MTS viability assay, Ba/F3 expressing KIT exon11 deletion (557-558) and V654A; settings: 72 h incubation, top concentration 10 uM
T2 construct: expressed in transfected cells; host or cells: Ba/F3 cells, lentiviral transduction (pLVX-IRES Puro)
T2 sequence (P10721 with tags, fused parts or gaps DEL557-558/V654A): as the sequence (P10721 with tags, fused parts or gaps DEL557-558/T670I) above, with V627A, I643T counted along it
Experimental: as §1, §2, §3

[3] = biological target: T3, Ba/F3-D816H (KIT exon11 deletion (557-558) and secondary mutation D816H) (Homo sapiens, UniProt P10721, D816H/DEL557-558); test: MTS viability assay, Ba/F3 expressing KIT exon11 deletion (557-558) and D816H; settings: 72 h incubation, top concentration 10 uM
T3 construct: expressed in transfected cells; host or cells: Ba/F3 cells, lentiviral transduction (pLVX-IRES Puro)
T3 sequence (P10721 with tags, fused parts or gaps DEL557-558/D816H): as the sequence (P10721 with tags, fused parts or gaps DEL557-558/T670I) above, with I643T, D789H counted along it
Experimental: as §1, §2, §3

[4] = test system: TEL-KDR (KDR (K790-V1356) fused to the C-terminus of Tel); test: MTS viability assay, Ba/F3 expressing Tel-KDR; settings: 72 h incubation, top concentration 10 uM
Experimental: Tel-KDR myc was cloned into pBCS2004, a retroviral vector, wherein KDR (K790-V1356) is fused to the C-terminus of Tel. Retroviral particles were generated in HEK293T cells. The Tel-KDR plasmid was co-transfected with helper viruses (gag-Pol and VSV-G) into HEK293T cells using calcium phosphate and the virus was harvested 72 h after transfection.
as §1, §2, §3

SMILES	GI50 (Ba/F3-Parental) [µM]	Ba/F3-T670I GI50 [1] [µM]	Ba/F3-V654A GI50 [2] [µM]	Ba/F3-D816H GI50 [3] [µM]	GI50 [4] [µM]
COc1cc(OC)c2c(Nc3ccc(NC(=O)Cn4cc(C(C)C)nn4)cc3F)ncnc2c1 [Example 1, N-(4-[(5,7-dimethoxyquinazolin-4-yl)amino]-3-fluorophenyl)-2-[4-(propan-2-yl)-1H-1,2,3-triazol-1-yl]acetamide]	≥ 10	0.162	0.007	0.141	≥ 10
COc1cc2ncnc(Nc3ccc(NC(=O)Cn4cc(C(C)C)nn4)cc3)c2c(F)c1OC [Example 2, N-{4-[(5-fluoro-6,7-dimethoxyquinazolin-4-yl)amino]phenyl}-2-[4-(propan-2-yl)-1H-1,2,3-triazol-1-yl]acetamide]	≥ 10	0.049	0.004	0.022	2.5
CCOc1cc(OC2CCOCC2)cc2ncnc(Nc3ccc(NC(=O)Cn4cc(C(C)C)nn4)cc3)c12 [Example 5, N-(4-((5-Ethoxy-7-((tetrahydro-2H-pyran-4-yl)oxy)quinazolin-4-yl)amino)phenyl)-2-(4-isopropyl-1H-1,2,3-triazol-1-yl)acetamide]	1.87	0.591	0.041	0.138	6.18
CCOc1cc(OCCN(C)C)cc2ncnc(Nc3ccc(NC(=O)Cn4cc(C(C)C)nn4)cc3)c12 [Example 6, N-(4-((7-(2-(Dimethylamino)ethoxy)-5-ethoxyquinazolin-4-yl)amino)phenyl)-2-(4-isopropyl-1H-1,2,3-triazol-1-yl)acetamide]	2.05	0.091	0.013	0.063	2.66
CCOc1cc(OC)cc2ncnc(Nc3ccc(NC(=O)Cn4cc(C(C)C)nn4)cc3)c12 [Example 7, N-(4-((5-Ethoxy-7-methoxyquinazolin-4-yl)amino)phenyl)-2-(4-isopropyl-1H-1,2,3-triazol-1-yl)acetamide]	≥ 10	0.073	0.007	0.079	3.19
CCOc1cc(OCCOC)cc2ncnc(Nc3ccc(NC(=O)Cn4cc(C(C)C)nn4)cc3)c12 [Example 8, N-(4-((5-Ethoxy-7-(2-methoxyethoxy)quinazolin-4-yl)amino)phenyl)-2-(4-isopropyl-1H-1,2,3-triazol-1-yl)acetamide]	2.55	0.032	0.015	0.044	2.15
CCOc1cc(OC2COC2)cc2ncnc(Nc3ccc(NC(=O)Cn4cc(C(C)C)nn4)cc3)c12 [Example 9, N-(4-((5-Ethoxy-7-(oxetan-3-yloxy)quinazolin-4-yl)amino)phenyl)-2-(4-isopropyl-1H-1,2,3-triazol-1-yl)acetamide]	1.71	0.127	0.012	0.105	2.33
COc1cc(OC2CCOCC2)cc2ncnc(Nc3ccc(NC(=O)Cn4cc(C(C)C)nn4)cc3)c12 [Example 10, N-(4-{[5-Methoxy-7-(tetrahydro-2H-pyran-4-yloxy)quinazolin-4-yl]amino}phenyl)-2-[4-(propan-2-yl)-1H-1,2,3-triazol-1-yl]acetamide]	≥ 10	0.640	0.007	0.065	9.48
COc1cc2ncnc(Nc3ccc(NC(=O)Cn4cc(C(C)C)nn4)cc3)c2c(OC)c1OC [Example 11, 2-[4-(Propan-2-yl)-1H-1,2,3-triazol-1-yl]-N-{4-[(5,6,7-trimethoxyquinazolin-4-yl)amino]phenyl}acetamide]	≥ 10	0.036	0.004	0.027	2.48
COCCOc1cc(F)c2c(Nc3ccc(NC(=O)Cn4cc(C(C)C)nn4)cc3)ncnc2c1 [Example 12, N-(4-{[5-Fluoro-7-(2-methoxyethoxy)quinazolin-4-yl]amino}phenyl)-2-[4-(propan-2-yl)-1H-1,2,3-triazol-1-yl]acetamide]	≥ 10	0.015	0.002	0.007	1.3
COc1cc(OC(C)C)cc2ncnc(Nc3ccc(NC(=O)Cn4cc(C(C)C)nn4)cc3)c12 [Example 15, N-(4-{[5-Methoxy-7-(propan-2-yloxy)quinazolin-4-yl]amino}phenyl)-2-[4-(propan-2-yl)-1H-1,2,3-triazol-1-yl]acetamide]	≥ 10	0.254	0.011	0.035	4.18
COc1cc(OC2COC2)cc2ncnc(Nc3ccc(NC(=O)Cn4cc(C(C)C)nn4)cc3)c12 [Example 16, N-(4-{[5-Methoxy-7-(oxetan-3-yloxy)quinazolin-4-yl]amino}phenyl)-2-[4-(propan-2-yl)-1H-1,2,3-triazol-1-yl]acetamide]	≥ 10	0.502	0.012	0.090	9.36
COc1cc(OCCN(C)C)cc2ncnc(Nc3ccc(NC(=O)Cn4cc(C(C)C)nn4)cc3)c12 [Example 17, N-[4-({7-[2-(Dimethylamino)ethoxy]-5-methoxyquinazolin-4-yl}amino)phenyl]-2-[4-(propan-2-yl)-1H-1,2,3-triazol-1-yl]acetamide]	≥ 10	0.627	0.020	0.088	≥ 10
CCOc1cc(OC)c2c(Nc3ccc(NC(=O)Cn4cc(C(C)C)nn4)cc3)ncnc2c1 [Example 18, N-{4-[(7-Ethoxy-5-methoxyquinazolin-4-yl)amino]phenyl}-2-[4-(propan-2-yl)-1H-1,2,3-triazol-1-yl]acetamide]	≥ 10	0.066	0.003	0.021	6.01
CCOc1cc(OCC)c2c(Nc3ccc(NC(=O)Cn4cc(C(C)C)nn4)cc3)ncnc2c1 [Example 19, N-{4-[(5,7-Diethoxyquinazolin-4-yl)amino]phenyl}-2-[4-(propan-2-yl)-1H-1,2,3-triazol-1-yl]acetamide]	≥ 10	0.034	0.007	0.056	≥ 10
